Measured values reported in a melting point compilation (Tetko et al.; mined from patent text by program, amines drawn as free bases though some values may be those of a salt).

Row | Compound | melting point [°C]
1 | CCCCOc1ccc(CCCOC(=O)NS(=O)(=O)NCCOC(C)C)c(Oc2ncc(C(F)(F)F)cc2Cl)c1 | 91.4 to 91.6
2 | CCCc1ccnc2c(=O)[nH]c(-c3cc(S(=O)(=O)N4CCC(C(=O)O)CC4)ccc3OCC)nc12 | 262 to 264
3 | CC1(C)C(=O)Nc2cc3[nH]c(O)nc3cc21 | > 300
4 | CCOC(=O)c1c(Cn2cncn2)nc2sc3ncccc3c2c1-c1ccc(OC)c(OC)c1 | 180 to 182
5 | O=C(O)C1=Cc2cc(C(=O)Cc3ccccc3)ccc2OC1C(F)(F)F (stereo not drawn) | 159 to 164
6 | COc1ccc(-c2nc(CNC(=O)CC(=O)O)sc2-c2ccc(OC)cc2)cc1 | 126 to 130
7 | CC(=O)OCC(=O)c1cc2c(s1)CCC1CC(=O)N(c3ccc(C)cc3)N=C21 (stereo not drawn) | 144 to 145
8 | ClCc1ccc(OCc2ccc3ccccc3n2)nc1 | 118 to 119
9 | CC(=O)NNc1ccc(N)cc1 | 130 to 140
10 | CCCOc1ccc(-c2ncc(C#N)c(Cl)n2)cc1 | 193 to 194
11 | Cc1c(C)c2c(c(C)c1OCc1ccccc1)CCC(C)(CN1CCN(CCOc3ccc(C=C4SC(=O)NC4=O)cc3)CC1)O2 (racemic) | 192 to 194
12 | COc1cccc(C23CCN(Cc4ccccc4)C(CC(=O)C2)C3)c1 (stereo not drawn) | 108 to 109
13 | Cc1cc2ccc(Cl)c(C)c2nc1-n1cncn1 | 147 to 148
14 | CCCCCCCCCCCCCCCCCCOc1cc(OCCOCCOCCOCC)cc(N(CC(=O)O)CC(=O)O)c1 | 76 to 78
15 | Nc1nc2ncn([C@H]3C=C[C@@H](O)C3)c2c(=O)[nH]1 (racemic) | > 310
16 | Cc1nc(Br)sc1C(=O)N[C@H](C)[C@](O)(Cn1cncn1)c1ccc(F)cc1F | 155 to 163
17 | CCCCCCC1c2cc(CC#N)ccc2-c2ccc(CC#N)cc21 | 130 to 131
18 | COc1cc(C=O)ccc1OCC(=O)OC(C)(C)C | 86.8 to 90
19 | CC(n1ncnn1)C(O)(c1ccc(Cl)cc1)c1ccc(C(F)(F)F)cc1 (stereo not drawn) | 123 to 125
20 | COc1cn(C(C)=O)c2ccc(F)c(Cl)c12 | 114 to 115
21 | O=C(CCC1CCCC1)N1CCN(C(=O)c2cc(C(F)(F)F)cc(C(F)(F)F)c2)[C@H](Cc2c[nH]c3ccccc23)C1 | 180 to 183
22 | O=C(N[C@H](Cc1ccc(CC(F)(F)C(F)(F)F)cc1)[C@@H](O)c1cccc(Cl)c1)c1ccc(F)c2ccccc12 (racemic) | 191 to 192
23 | Cc1oc(C=Cc2cccc(C(F)(F)F)c2)nc1CC#N | 107 to 108
24 | CCc1ccc(C2=NC(C)(C(C)C)C(=O)N2CC=CC(=O)O)nc1 (stereo not drawn) | 53 to 58
25 | CCCCc1nc(=O)c2cc(I)ccc2[nH]1 | 258 to 260

Row | Compound | melting point [°C]
26 | CC(C)(C)OC(=O)c1ccc(C(=O)NS(=O)(=O)c2ccc(Cl)cc2)cc1 | > 300
27 | OCc1c[nH]c(Sc2ccccc2)c1 | 69 to 71
28 | CCCCN(CCCC)c1ccc2cc(Cl)cnc2c1C#N | 112
29 | CC(=O)OC1C=C(Br)C(=O)CO1 (stereo not drawn) | 78 to 80
30 | CNC(=S)NS(=O)(=O)c1cc(CCNC(=O)c2cc(Cl)ccc2OC)ccc1OC | 190 to 193
31 | Cc1cc(Nc2ccc(O)cc2)c2[nH]ncc2n1 | 174 to 176
32 | CCC(COC)Nc1nc(C)nc2c1nnn2-c1ccc(C(C)C)cc1Br (stereo not drawn) | 132 to 134
33 | O=c1c(N2CCCNCC2)nc2cc(F)ccc2n1-c1ccccc1 | 151 to 152
34 | CC1=NCCN1c1cnc2[nH]cc(C(=O)C(C)(C)C)c2n1 | 235 to 236
35 | CCc1c(N)cccc1NC(=O)OC(C)(C)C | 109 to 110
36 | CCNc1cc(NS(=O)(=O)c2ccc(N)cc2)nc(N(C)C)n1 | 237 to 238
37 | CC1CC(c2cccc(Cl)c2)=NNC1=O (stereo not drawn) | 150 to 151
38 | COc1cccc(-n2[nH]c(Cc3c(C)n(C(=O)c4ccc(Cl)cc4)c4ccc(OC)cc34)cc2=O)c1 | 102 to 104
39 | O=C(CCCCCNCc1cc2nc(-c3cccc4[nH]ncc34)nc(N3CCOCC3)c2s1)NO | 128 to 130
40 | CON=C(C#N)C(=O)Nc1ccc(OC(F)C(F)(F)F)cc1 (stereo not drawn) | 109 to 110
41 | CS(=O)c1ccc(Oc2ccc(Cl)c(Cl)c2)nc1C(N)=O (stereo not drawn) | 185 to 187
42 | C=CC(=O)CC1CN=C(c2cc3cccc(N(C)S(=O)(=O)c4cccs4)c3[nH]2)S1 (stereo not drawn) | 157 to 158
43 | CC(C)(C)[Si](C)(C)OC1CN(c2ccc(N3C[C@H](CN=[N+]=[N-])OC3=O)cc2F)C1 | 121 to 122
44 | COc1ccc(I)cc1CCCO | 68 to 70
45 | O=c1c2ccccc2sc2cc(OCC(O)CCl)cc(O)c12 (stereo not drawn) | 151
46 | CCCC(=O)c1cnc2c(OC)cccc2c1Nc1ccc(OC)cc1C | 161 to 163
47 | COC(=O)c1ccc(C(O)c2ccc(C(=O)OC)cc2)cc1 | 116
48 | c1cc(CCC(Cn2ccnc2)Sc2ccc(N3CCCC3)cc2)ccn1 (stereo not drawn) | 148 to 149
49 | Cc1cc(N(C)c2ccn(-c3ccccc3)n2)cc(C)c1O | 139 to 140
50 | CC(O)c1ccc(CNC(=O)c2cccnc2Oc2cccnc2)s1 (stereo not drawn) | 92 to 94

Row | Compound | melting point [°C]
51 | CNc1cc(C(=O)Nc2c(C)cc(C(F)(C(F)(F)F)C(F)(F)F)cc2C)ccc1C#N | 204 to 206
52 | Cc1ccc(S(=O)(=O)ON2C(=O)c3ccc(C(=O)Cl)cc3C2=O)cc1 | 131 to 133
53 | O=C1C(c2c[nH]c3ccccc23)=C(c2c[nH]c3ccccc23)C(=O)N1Cc1ccccc1 | > 290
54 | Cc1nccn1-c1nc(-c2ccc(Cl)cc2)c(CCCN2C(=O)COC2=O)o1 | 152 to 153
55 | COc1cc2c(cc1OC)[C@@H]1CN(C)CC[C@@H]1N=C2c1ccc(NC(C)=O)cc1 (relative stereo) | 173 to 175
56 | COC(=O)NCCOC(=O)C(C)Oc1ccc(Oc2cnc3cc(Cl)ccc3n2)cc1 (stereo not drawn) | 103 to 104
57 | Cc1ccccc1Sc1cncc2sc(C(N)=O)cc12 | 170 to 172
58 | COc1ccc(C(=O)N2CCc3cc(OCc4ccccc4)c(OC)cc3C2=O)cc1OC | 200 to 201
59 | CS(=O)(=O)c1ccc(-c2cc(C(F)F)nn2C2CCCCC2)cc1F | 138 to 139
60 | COc1ccc2c(c1)c1c(n2CCCN(C)C)CCCSCC1 | 79 to 80
61 | CN(C)CC(=O)Nc1cccc2nc(N[C@@H]3CCc4ccccc43)ccc12 | 153
62 | O=C(O)c1cc(C(F)(F)F)cc([N+](=O)[O-])c1Cl | 173
63 | CCCCCCC(C(=O)O)n1ccc2cc(-c3ccccc3C(=O)O)ccc21 (stereo not drawn) | 115 to 120
64 | COc1cc(C(=O)N2CCC(CCN3CCC(Nc4nc5ccccc5n4Cc4ccc(Cl)s4)CC3)(c3ccc(F)c(F)c3)C2)cc(OC)c1OC (stereo not drawn) | 110 to 120
65 | Cn1c(=O)c2[nH]c(C=Cc3cccc(N)c3)nc2n(C)c1=O | > 300
66 | Cc1csc2ncc(C(C)(O)CCc3ccccc3)n12 (stereo not drawn) | 131 to 133
67 | O=[N+]([O-])c1cccc(S(=O)(=O)NCC2CC2)c1 | 91
68 | CCOC(=O)C1=C(N)OC(C)=C(C(=O)OC)C1c1cc([N+](=O)[O-])ccc1Cl (stereo not drawn) | 159
69 | O=C(O)CCC(=O)c1ccc(-n2cncn2)cc1 | 234 to 235
70 | COc1ccc(-c2cc(CN3C(=O)c4ccccc4C3=O)c(=O)n(CC3CC3)n2)cc1F | 242 to 244
71 | Cc1cc(O)nn1-c1ccc(Cl)c(Cl)c1 | 208 to 211
72 | O=C(CCCCCCCCCCCNC(=O)OCc1ccccc1)OC(=O)CCCCCCCCCCCNC(=O)OCc1ccccc1 | 72 to 73
73 | CC(=O)OC(CCc1cc(C(C)(C)C)c(O)c(C(C)(C)C)c1)CCc1cc(C(C)(C)C)c(O)c(C(C)(C)C)c1 | 82 to 85
74 | COc1ccc2c(c1)Sc1c(cc(OC)c(OC(=O)c3ccccc3)c1Br)N2 | 202 to 203
75 | CC1Cc2ccccc2C(C(S)(C#N)C(=O)O)=N1 (stereo not drawn) | 159 to 160

Row | Compound | melting point [°C]
76 | O=S1(=O)c2ccccc2Oc2cc(F)ccc21 | 174 to 176
77 | Cc1ccc(C(=O)c2ccc3[nH]c(=O)nc(-c4cccc(Cl)c4)c3c2)cc1 | 181
78 | CCCCOC(=O)[C@H]1NC(=O)[C@H]1N (relative stereo) | 87 to 89
79 | O=C1NC(=O)C(c2c3n(c4ccccc24)CCC(CO)C3)=C1c1cccc(C(F)(F)F)c1 (stereo not drawn) | 77 to 79
80 | CC(CN(C)c1ccccc1)NCC(O)c1ccc(O)c(C(N)=O)c1 (stereo not drawn) | 143 to 145
81 | CCOC(=O)CCCn1c(=O)[nH]c2ccccc2c1=O | 133 to 135
82 | Cc1ccc2nc(NC(=O)c3c(Cl)cccc3Cl)cc(NN)c2c1C | 190 to 198
83 | CCCC(=NO)c1ccc(C(=O)O)cn1 | 203 to 205
84 | CC1(C)CCCc2cc3c(cc21)C(C)(C)CCC3(C)C | 94 to 95
85 | Cc1cc(Cl)c2c(n1)C(O)CCC2 (stereo not drawn) | 87 to 90
86 | COc1ccccc1Oc1c(NS(=O)(=O)c2ccc(C(C)(C)C)cc2)nc(NCCN(C)C)nc1OCCO | 102 to 106
87 | CNC(=O)C(C#N)C(=O)Nc1ccc(C(F)(F)F)cc1 (stereo not drawn) | 184 to 186
88 | CN(C)n1cc(-c2ccccc2)c(=O)c(-c2ccccc2)c1 | 143
89 | O=c1c2c(Cc3ccccc3[N+](=O)[O-])n[nH]c2c2cccnc2n1-c1cccc(OC(F)(F)F)c1 | 274 to 276
90 | O=c1ccc([N+](=O)[O-])cn1[C@@H]1c2ccccc2OCC[C@H]1O (relative stereo) | 152 to 155
91 | CC(=O)c1ccc(=O)[nH]c1C=CN(C)C | 238 to 240
92 | CC(C)[C@H](NC(=O)[C@H](CC(=O)OC(C)(C)C)NC(=O)CNC(=O)c1csc(NC(=O)NCc2ccccc2)n1)C(=O)OC(C)(C)C | 108 to 110
93 | CN1CCN(c2ccc3c(c2)NC(=O)C(C)(c2ccc(N)cc2)C3=O)CC1 (stereo not drawn) | 265 to 267
94 | O=C(O)c1ccc(-c2nnc(-c3ccc(C(F)(F)F)cc3)o2)c([N+](=O)[O-])c1 | 254 to 255
95 | COc1ccccc1OC(=O)c1ncn2c1[C@@H]1CCCN1C(=O)c1c(Cl)cccc1-2 | 205 to 206
96 | COc1cc(OC(C)(C)C(=O)O)c(/C=C/C(=O)c2ccc(S(N)(=O)=O)cc2)cc1-c1cccs1 | 164 to 165
97 | Nc1sc2c(c1C(=O)c1cccc3ccccc13)CCN(Cc1ccccc1)C2 | 178 to 180
98 | OCC12CCCN(CCC1)C2 | 64 to 65.5
